Where a name gives a salt, the structure may show the parent alone.
Key:
[1] = test system: Snhg1 transcript (NMD target gene) in EMT6 murine breast cancer cell line; assay: Measurement of NMD inhibitory activity in cells (increase in Snhg1 transcript, real-time PCR); parameters: species or system mouse; settings: Mus musculus, 6 hours treatment, concentration giving 1/2 of maximum Snhg1 fold change of positive control, read-out: Test Example 2 Cell-based Snhg1 EC50
Protocol: The NMD inhibitory activity of a compound of the present invention or a pharmaceutically acceptable salt thereof in cells can be measured, for example, by the method described below. EMT6 murine breast cancer cell line is treated with a test substance in vitro for 6 hours, and the increase in the transcript of Snhg1, a known NMD target gene, is quantified as an indicator of NMD inhibition. Quantification is performed by real-time PCR.
NMD inhibitory activity was measured by treating EMT6 murine breast cancer cell line (ATCC) with a test substance and quantifying the increase in the transcript of Snhg1, an NMD target gene (see F. Usui, et al., Scientific Reports volume 9, Article number: 1279 (2019) for the NMD target gene). That is, EMT6 cells were suspended in Waymouth's medium (Gibco, 15% FBS) and seeded in a 96-well plate at 2×10^4 cells/well. The cells were cultured for 1 day. The next day, serially diluted test substance (DMSO solution, final DMSO concentration: 2%) was added. After culturing for 6 hours, the supernatant was removed, and RNA was extracted using the RNeasy 96 kit (QIAGEN, 74182). After synthesizing cDNA using the High Capacity cDNA Reverse Transcription kit (Applied Biosystems, 4368813), the cDNA was mixed with PrimeTime Gene Expression Master Mix (Integrated DNA Technologies) and various probes, and gene expression was quantified using QuantStudio 6 Flex (Thermo Fisher Scientific Inc.). For the probe for the Snhg1 gene, which is an NMD target, Mm.PT.58.44039547 (FAM)(Integrated DNA Technologies) was used, and for the probe for the Tbp gene, which is an endogenous control, Mm00446973_m1 Tbp (VIC-PL) (Applied Biosystems) was used. The relative quantification of Snhg1 transcripts was calculated by the ΔΔCT method, using Thp as an endogenous control and setting the expression level of Snhg1 in untreated wells to 1.
A known NMD inhibitory compound (pyrimidine derivative Example 11i, Bioorg Med Chem Lett. 2012, 22(21), 6636-41) was used as a positive control drug for NMD inhibition. The NMD inhibitory activity of the test substance-added well was calculated as follows: the maximum fold change in Sngh1 expression in the positive control drug-added well relative to that in the untreated well was defined as the maximum NMD inhibitory activity, and the EC50 (compound concentration showing 50%/activity) of the test substance showing a ½-fold change was calculated by the GROWTH function of Microsoft Excel.

human SMG1 enzyme = human SMG1 enzyme (Homo sapiens, UniProt Q96Q15); assay: Measurement of SMG1 kinase activity (ADP-Glo Kinase Assay); format: biochemical; settings: purified human SMG1 enzyme 5 nM, Upf1 peptide substrate, ATP 4 μM; qAC50 synonymous with IC50; read-out: Test Example 1 ADP-Glo IC50
Chain of human SMG1 enzyme (Q96Q15 whole entry): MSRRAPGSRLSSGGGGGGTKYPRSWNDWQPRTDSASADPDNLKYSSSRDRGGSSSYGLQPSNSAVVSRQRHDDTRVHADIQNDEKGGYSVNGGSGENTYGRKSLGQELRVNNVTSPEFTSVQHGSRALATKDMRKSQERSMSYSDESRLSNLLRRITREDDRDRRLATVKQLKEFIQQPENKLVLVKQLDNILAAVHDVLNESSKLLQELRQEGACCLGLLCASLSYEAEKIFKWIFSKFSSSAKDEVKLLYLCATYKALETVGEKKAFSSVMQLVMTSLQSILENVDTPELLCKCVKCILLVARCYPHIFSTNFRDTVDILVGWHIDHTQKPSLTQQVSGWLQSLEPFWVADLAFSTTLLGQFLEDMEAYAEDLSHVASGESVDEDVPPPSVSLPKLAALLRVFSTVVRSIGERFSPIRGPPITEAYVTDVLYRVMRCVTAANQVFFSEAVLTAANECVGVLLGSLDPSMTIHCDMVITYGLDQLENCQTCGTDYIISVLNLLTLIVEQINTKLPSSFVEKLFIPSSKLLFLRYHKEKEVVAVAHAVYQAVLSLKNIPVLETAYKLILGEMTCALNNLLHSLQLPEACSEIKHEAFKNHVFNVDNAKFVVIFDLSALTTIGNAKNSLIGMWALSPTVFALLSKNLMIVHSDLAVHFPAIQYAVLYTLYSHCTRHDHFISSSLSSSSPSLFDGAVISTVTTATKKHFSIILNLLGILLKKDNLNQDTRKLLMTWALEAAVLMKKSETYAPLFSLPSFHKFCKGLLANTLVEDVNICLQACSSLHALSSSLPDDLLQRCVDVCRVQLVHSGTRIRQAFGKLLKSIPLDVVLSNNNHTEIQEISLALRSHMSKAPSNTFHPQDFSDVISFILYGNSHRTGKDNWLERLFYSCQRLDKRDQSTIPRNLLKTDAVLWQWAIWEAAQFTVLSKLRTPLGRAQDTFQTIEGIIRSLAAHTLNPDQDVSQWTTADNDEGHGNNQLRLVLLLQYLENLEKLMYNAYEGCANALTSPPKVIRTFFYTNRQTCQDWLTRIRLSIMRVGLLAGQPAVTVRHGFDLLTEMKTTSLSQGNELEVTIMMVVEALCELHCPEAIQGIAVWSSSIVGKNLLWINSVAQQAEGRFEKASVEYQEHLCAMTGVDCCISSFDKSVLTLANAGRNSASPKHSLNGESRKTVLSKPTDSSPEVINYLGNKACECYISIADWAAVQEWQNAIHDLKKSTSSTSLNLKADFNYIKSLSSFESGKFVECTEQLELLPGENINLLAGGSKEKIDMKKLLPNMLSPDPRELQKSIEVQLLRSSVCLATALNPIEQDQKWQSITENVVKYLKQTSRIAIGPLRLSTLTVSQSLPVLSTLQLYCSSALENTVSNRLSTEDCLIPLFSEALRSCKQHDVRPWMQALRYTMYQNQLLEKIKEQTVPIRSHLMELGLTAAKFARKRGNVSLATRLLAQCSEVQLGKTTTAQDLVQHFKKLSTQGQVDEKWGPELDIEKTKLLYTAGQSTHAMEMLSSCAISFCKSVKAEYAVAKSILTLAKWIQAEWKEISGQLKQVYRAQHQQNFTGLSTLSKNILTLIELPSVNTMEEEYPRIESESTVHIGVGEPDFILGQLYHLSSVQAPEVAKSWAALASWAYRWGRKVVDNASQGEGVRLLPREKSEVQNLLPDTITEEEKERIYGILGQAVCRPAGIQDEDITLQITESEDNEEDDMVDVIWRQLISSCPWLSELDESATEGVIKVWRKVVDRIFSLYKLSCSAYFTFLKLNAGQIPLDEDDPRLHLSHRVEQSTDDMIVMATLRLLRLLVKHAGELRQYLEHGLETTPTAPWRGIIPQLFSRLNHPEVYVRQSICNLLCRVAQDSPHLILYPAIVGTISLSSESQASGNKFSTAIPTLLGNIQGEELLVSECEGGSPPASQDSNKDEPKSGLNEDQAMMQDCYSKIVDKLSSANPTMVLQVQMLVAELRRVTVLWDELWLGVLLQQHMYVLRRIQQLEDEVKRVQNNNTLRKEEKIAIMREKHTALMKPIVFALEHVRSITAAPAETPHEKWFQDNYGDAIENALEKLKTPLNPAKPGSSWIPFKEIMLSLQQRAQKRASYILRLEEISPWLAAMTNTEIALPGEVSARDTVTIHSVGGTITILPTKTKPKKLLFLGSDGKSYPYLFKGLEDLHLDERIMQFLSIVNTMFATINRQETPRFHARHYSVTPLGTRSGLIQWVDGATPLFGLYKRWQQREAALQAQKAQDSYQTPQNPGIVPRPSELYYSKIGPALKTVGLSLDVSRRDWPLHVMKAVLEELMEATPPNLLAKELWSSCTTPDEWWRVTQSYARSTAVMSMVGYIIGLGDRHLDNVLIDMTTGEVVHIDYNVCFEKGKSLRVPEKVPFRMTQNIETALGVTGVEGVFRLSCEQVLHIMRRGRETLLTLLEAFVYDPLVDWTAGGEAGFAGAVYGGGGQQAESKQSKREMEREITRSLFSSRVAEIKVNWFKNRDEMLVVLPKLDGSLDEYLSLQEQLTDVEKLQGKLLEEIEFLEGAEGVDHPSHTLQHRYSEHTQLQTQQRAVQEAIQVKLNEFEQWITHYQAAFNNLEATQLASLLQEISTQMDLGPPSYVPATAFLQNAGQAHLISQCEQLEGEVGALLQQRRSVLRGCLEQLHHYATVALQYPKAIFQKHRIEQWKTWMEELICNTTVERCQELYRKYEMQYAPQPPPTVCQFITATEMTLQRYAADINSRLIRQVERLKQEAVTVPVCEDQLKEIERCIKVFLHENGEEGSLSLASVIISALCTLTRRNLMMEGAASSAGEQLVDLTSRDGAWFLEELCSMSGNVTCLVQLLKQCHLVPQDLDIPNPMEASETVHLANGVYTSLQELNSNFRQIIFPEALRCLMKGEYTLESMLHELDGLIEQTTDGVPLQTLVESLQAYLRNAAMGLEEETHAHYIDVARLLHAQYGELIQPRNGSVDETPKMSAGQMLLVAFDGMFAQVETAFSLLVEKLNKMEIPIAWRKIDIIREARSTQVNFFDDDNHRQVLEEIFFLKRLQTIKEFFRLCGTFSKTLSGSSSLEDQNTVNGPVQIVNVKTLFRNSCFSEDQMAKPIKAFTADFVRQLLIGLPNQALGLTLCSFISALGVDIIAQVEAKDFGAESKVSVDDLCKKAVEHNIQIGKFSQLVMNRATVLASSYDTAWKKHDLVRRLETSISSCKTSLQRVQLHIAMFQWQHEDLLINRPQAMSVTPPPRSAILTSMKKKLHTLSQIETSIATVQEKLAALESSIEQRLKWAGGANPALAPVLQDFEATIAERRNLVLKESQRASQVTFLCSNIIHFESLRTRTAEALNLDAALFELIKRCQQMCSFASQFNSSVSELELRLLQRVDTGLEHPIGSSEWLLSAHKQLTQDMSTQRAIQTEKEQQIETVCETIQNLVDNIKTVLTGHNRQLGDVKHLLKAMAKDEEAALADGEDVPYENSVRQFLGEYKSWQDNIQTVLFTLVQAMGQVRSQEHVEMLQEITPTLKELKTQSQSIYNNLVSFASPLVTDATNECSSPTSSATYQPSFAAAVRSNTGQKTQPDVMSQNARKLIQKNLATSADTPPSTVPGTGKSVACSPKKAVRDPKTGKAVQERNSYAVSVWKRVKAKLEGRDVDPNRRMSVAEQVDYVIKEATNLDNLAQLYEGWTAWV
Source text: The SMG1 kinase inhibitory activity of a compound of the present invention or a pharmaceutically acceptable salt thereof can be measured, for example, by the method described below. Using purified human SMG1 protein and a substrate peptide as materials, the kinase activity can be measured by the ADP-Glo Kinase Assay; the SMG1 kinase inhibitory activity of a test substance can be evaluated by comparing the kinase activity in the presence and absence of the test substance.
The reaction was performed by the ADP-Glo Kinase Assay (Promega, catalog number V9102) using a 384-well plate under the conditions of an assay buffer (100 mM HEPES (pH 7.5), 50 mM NaCl, 10 mM MnCl2, 0.01% BSA, 0.1% Tween 20.5 mM TCEP). After incubating a test substance (DMSO solution; final DMSO concentration: 1%) and purified human SMG1 enzyme (Genes Dev. 2011 Jan. 15; 25(2): 153-164, produced by Daiichi Sankyo RD Novare Co., Ltd.; final concentration: 5 nM) at room temperature for 15 minutes, a substrate, Upf1 peptide (Biotin-(PEG8) QIDVALSQDSTYQG, produced by Eurofins genomics; final concentration: 8 μg/mL), and ATP (Promega: 4 μM) were added, and the mixture was reacted at room temperature for 60 minutes (see Non-Patent Literature R. Melero, et al., Structure Volume 22, Issue 8, 5 Aug. 2014, Pages 1105-1119 for the Upf1 peptide). ADP-Glo Reagent was added, and the mixture was reacted at room temperature for 40 minutes. Kinase Detection Reagent was added, and the mixture was reacted for another 30 minutes. The luminescence intensity was measured using EnVision (PerkinElmer).
The activity value (%) of the test substance-added well was calculated from the following formula, where the average luminescence intensity of the DMSO-added well was 0% and the average luminescence intensity of the SMG1 enzyme-free well was −100%.
The qAC50 (compound concentration showing 50% inhibition, synonymous with IC50) of the test substance was calculated using the activity value (%) at each concentration by Smart fit of Screener (Genedata). Smart fit is a general 4-parameter logistic regression model.

Row | SMILES | EC50 [1] [nM] | IC50 (human SMG1 enzyme) [nM]
1 | Cc1nc(Cl)cc2[nH]c(-c3cc4c(-c5c(F)cccc5C#N)nccc4[nH]c3=O)nc12 [Example 45, 2-[3-(6-chloro-4-methyl-1H-imidazo[4,5-c]pyridin-2-yl)-2-oxo-1,2-dihydro-1,6-naphthyridin-5-yl]-3-fluorobenzonitrile] | 11 | 0.8
2 | CC(C)(O)c1cccc(-c2nccc3[nH]c(=O)c(-c4nc5cnc(Cl)cc5[nH]4)cc23)c1 [Example 46, 3-(6-chloro-1H-imidazo[4,5-c]pyridin-2-yl)-5-[3-(2-hydroxypropan-2-yl)phenyl]-1,6-naphthyridin-2(1H)-one] | 115 | 1.8
3 | O=c1[nH]c2ccnc(-c3cccc(CN4C5CCC4COC5)c3)c2cc1-c1nc2cnc(Cl)cc2[nH]1 [Example 47, 3-(6-chloro-1H-imidazo[4,5-c]pyridin-2-yl)-5-[3-(3-oxa-8-azabicyclo[3.2.1]octan-8-ylmethyl)phenyl]-1,6-naphthyridin-2(1H)-one] | 117 | 2.1
4 | COc1cc(C)ncc1-c1nccc2[nH]c(=O)c(-c3nc4c(C)nc(Cl)cc4[nH]3)cc12 [Example 59, 3-(6-chloro-4-methyl-1H-imidazo[4,5-c]pyridin-2-yl)-5-(4-methoxy-6-methylpyridin-3-yl)-1,6-naphthyridin-2(1H)-one] | 41 | 0.52
5 | COc1cc(C2CC2)ncc1-c1nccc2[nH]c(=O)c(-c3nc4cnc(Cl)cc4[nH]3)cc12 [Example 62, 3-(6-chloro-1H-imidazo[4,5-c]pyridin-2-yl)-5-(6-cyclopropyl-4-methoxypyridin-3-yl)-1,6-naphthyridin-2(1H)-one] | 16 | 0.95
6 | COc1cc(C(F)F)ncc1-c1nccc2[nH]c(=O)c(-c3nc4c(C)nc(Cl)cc4[nH]3)cc12 [Example 63, 3-(6-chloro-4-methyl-1H-imidazo[4,5-c]pyridin-2-yl)-5-[6-(difluoromethyl)-4-methoxypyridin-3-yl]-1,6-naphthyridin-2(1H)-one] | 14 | 0.68
7 | COc1cc(C(C)(F)F)ncc1-c1nccc2[nH]c(=O)c(-c3nc4c(C)nc(Cl)cc4[nH]3)cc12 [Example 65, 3-(6-chloro-4-methyl-1H-imidazo[4,5-c]pyridin-2-yl)-5-[6-(1,1-difluoroethyl)-4-methoxypyridin-3-yl]-1,6-naphthyridin-2(1H)-one] | 15 | 0.69
8 | COc1nc(C)ncc1-c1nccc2[nH]c(=O)c(-c3nc4c(NCC(F)F)nc(Cl)cc4[nH]3)cc12 [Example 69, 3-(6-chloro-4-[(2,2-difluoroethyl)amino]-1H-imidazo[4,5-c]pyridin-2-yl)-5-(4-methoxy-2-methylpyrimidin-5-yl)-1,6-naphthyridin-2(1H)-one] | 6.8 | 0.91
9 | Cn1ccc(-c2nccc3[nH]c(=O)c(-c4nc5cnc(Cl)cc5[nH]4)cc23)c1 [Example 86, 3-(6-chloro-1H-imidazo[4,5-c]pyridin-2-yl)-5-(1-methyl-1H-pyrrol-3-yl)-1,6-naphthyridin-2(1H)-one] | 43 | 1.8
10 | Cc1nn(C)c(C)c1-c1nccc2[nH]c(=O)c(-c3nc4cnc(Cl)cc4[nH]3)cc12 [Example 88, 3-(6-chloro-1H-imidazo[4,5-c]pyridin-2-yl)-5-(1,3,5-trimethyl-1H-pyrazol-4-yl)-1,6-naphthyridin-2(1H)-one] | 46 | 1.1
11 | Cc1nn(CC2CC2)c(C)c1-c1nccc2[nH]c(=O)c(-c3nc4cnc(Cl)cc4[nH]3)cc12 [Example 90, 3-(6-chloro-1H-imidazo[4,5-c]pyridin-2-yl)-5-[1-(cyclopropylmethyl)-3,5-dimethyl-1H-pyrazol-4-yl]-1,6-naphthyridin-2(1H)-one] | 74 | 1.5

The next lines start with the values.

Row | EC50 [1] [nM] | IC50 (human SMG1 enzyme) [nM] | SMILES
12 | 1.2 | 0.52 | Cc1ccccc1-c1nccc2[nH]c(=O)c(-c3nc4c(N5CCCC(N)C5)nc(Cl)cc4[nH]3)cc12 (stereo not shown) [Example 56, 3-[4-(3-aminopiperidin-1-yl)-6-chloro-1H-imidazo[4,5-c]pyridin-2-yl]-5-(2-methylphenyl)-1,6-naphthyridin-2(1H)-one hydrochloride]
13 | 5.7 | 0.7 | CCc1nc(Cl)cc2[nH]c(-c3cc4c(-c5cnc(C)cc5OC)nccc4[nH]c3=O)nc12 [Example 60, 3-(6-chloro-4-ethyl-1H-imidazo[4,5-c]pyridin-2-yl)-5-(4-methoxy-6-methylpyridin-3-yl)-1,6-naphthyridin-2(1H)-one]
14 | 15 | 0.84 | COc1cc(C(F)(F)F)ncc1-c1nccc2[nH]c(=O)c(-c3nc4c(C)nc(Cl)cc4[nH]3)cc12 [Example 64, 3-(6-chloro-4-methyl-1H-imidazo[4,5-c]pyridin-2-yl)-5-[4-methoxy-6-(trifluoromethyl)pyridin-3-yl]-1,6-naphthyridin-2(1H)-one]
15 | 67 | 2.2 | COc1nc(C)ccc1-c1nccc2[nH]c(=O)c(-c3nc4cnc(Cl)cc4[nH]3)cc12 [Example 66, 3-(6-chloro-1H-imidazo[4,5-c]pyridin-2-yl)-5-(2-methoxy-6-methylpyridin-3-yl)-1,6-naphthyridin-2(1H)-one]
16 | 32 | 1 | COc1nc(C)ccc1-c1nccc2[nH]c(=O)c(-c3nc4c(C)nc(Cl)cc4[nH]3)cc12 [Example 67, 3-(6-chloro-4-methyl-1H-imidazo[4,5-c]pyridin-2-yl)-5-(2-methoxy-6-methylpyridin-3-yl)-1,6-naphthyridin-2(1H)-one]
17 | 2.3 | 1.3 | COc1ncc(-c2nccc3[nH]c(=O)c(-c4nc5c(N6C[C@H](F)C[C@H]6C)nc(Cl)cc5[nH]4)cc23)c(OC)n1 [Example 71, 3-(6-chloro-4-[(2R,4R)-4-fluoro-2-methylpyrrolidin-1-yl]-1H-imidazo[4,5-c]pyridin-2-yl)-5-(2,4-dimethoxypyrimidin-5-yl)-1,6-naphthyridin-2(1H)-one]
18 | 51 | 1.2 | CCc1nc(Cl)cc2[nH]c(-c3cc4c(-c5cnc(C6CC6)cc5OC(F)F)nccc4[nH]c3=O)nc12 [Example 75, 3-(6-chloro-4-ethyl-1H-imidazo[4,5-c]pyridin-2-yl)-5-[6-cyclopropyl-4-(difluoromethoxy)pyridin-3-yl]-1,6-naphthyridin-2(1H)-one]
19 | 59 | 1.3 | CCc1nc(Cl)cc2[nH]c(-c3cc4c(-c5c(C)cnn5C)nccc4[nH]c3=O)nc12 [Example 87, 3-(6-chloro-4-ethyl-1H-imidazo[4,5-c]pyridin-2-yl)-5-(1,4-dimethyl-1H-pyrazol-5-yl)-1,6-naphthyridin-2(1H)-one]
20 | 14 | 0.59 | CCc1nc(Cl)cc2[nH]c(-c3cc4c(-c5c(C)nn(C)c5C)nccc4[nH]c3=O)nc12 [Example 89, 3-(6-chloro-4-ethyl-1H-imidazo[4,5-c]pyridin-2-yl)-5-(1,3,5-trimethyl-1H-pyrazol-4-yl)-1,6-naphthyridin-2(1H)-one]

— patent publication US20260109715A1, “IMIDAZOPYRIDINE DERIVATIVES WITH BICYCLIC STRUCTURE” (PUBLIC UNIVERSITY CORPORATION YOKOHAMA CITY UNIVERSITY, priority 2022, published 2026)
